Results published in patent US20110118379A1, “INTERVERTEBRAL DISC AND INTRAOCULAR LENS” (priority 2008, published 2011).

Experiments:
L929 mouse fibroblasts = test: MTS cytotoxicity assay, L929 cells; assay type: cell-based; details: 24 hours incubation
Method: (§1) Cytotoxicity testing was carried out on precursor monomers and proteoglycan analogues via the MTS assay using a commercial Kit (MTS assay Cell titre 96® AQueous One Solution Cell Proliferation Assay). Briefly, 5×10^3 cells per well were allowed to adhere to a 96 well plate for 24 hours. The substance under test was added and incubated with the cells for 24 hours before assessment of cell activity with MTS solution. Two cell types were used: (i) L929 mouse fibroblasts (European Collection of Cell Culture: ECACC No 85011425) which are typically used in cytotoxicity tests and (ii) bovine nucleus pulposus cells, prepared by enzymatic digestion of nucleus pulposus from bovine coccygeal discs.
(§2) The individual possible components of proteoglycan analogues were tested, including: NaAMPS, KSPA, acryloyl morpholine (ACMO), glycerol, ascorbic acid, Oxone (potassium oxypersulphate), PEG diacrylate and multifunctional macromer cross-linkers. The proteoglycan analogues are exemplified by those in Tables 1 and 2.

[1] = tested on: bovine nucleus pulposus cells; test: MTS cytotoxicity assay, bovine nucleus pulposus cells; assay type: cell-based; details: bovine disc cells, 24 hours incubation
Method: as §1, §2

| Molecule | toxicity to cells (MTS assay) (L929 mouse fibroblasts) | toxicity to cells (MTS assay) [1] |
| --- | --- | --- |
| potassium oxypersulphate [Oxone] | not to be toxic | not to be toxic |
| O=C1O[C@H]([C@@H](O)CO)C(O)=C1O [ascorbic acid] | not to be toxic | not to be toxic |
